These results are taken from paper PMC5482217 (Journal of the American Chemical Society, 2016).

SMILES strings stand for the structures. Values after ≈ are worked out from the molar mass of the structure shown.

The subject of one data set is E. coli. The class given is cell-based.
The subject of another data set is S. aureus. The class given is cell-based.
A further data set relates to S. enteritidis. The class given is cell-based.
The next data set has as its system B. abortus. It counts as cell-based.
In the next data set the test system is S. flexneri. It counts as cell-based.
The subject of data set [1] is M. tuberculosis. The class given is cell-based.
Data set [2] deals with S. aureus clinical isolate that forms biofilms. It counts as cell-based.
The subject of another data set is C. elegans. To be noted: in vivo, 50 µM.
The subject of data set [3] is M. tuberculosis. Conditions: after 10 days; cited from earlier work.

For `NC[C@H]1O[C@H](O[C@H]2[C@H](O)[C@@H](O[C@H]3O[C@H](CO)[C@@H](O)[C@H](N)[C@H]3O)[C@H](N)C[C@@H]2N)[C@H](O)[C@@H](O)[C@@H]1O` [kanamycin], the MIC against E. coli was found to be 2 µM (≈ 0.969 µg/mL); in the data set on S. aureus, 2 µM (≈ 0.969 µg/mL); against S. enteritidis, 16 µM (≈ 7.75 µg/mL); with B. abortus, 4 µM (≈ 1.94 µg/mL); against S. flexneri, 2 µM (≈ 0.969 µg/mL); against M. tuberculosis [1], 2 µM (≈ 0.969 µg/mL). In addition, the MIC came to 4 µM (≈ 1.94 µg/mL) in data set [2] and 8 µM (≈ 3.88 µg/mL) in the data set on M. smegmatis. In the data set on C. elegans, the “viability of C. elegans” value is greater than 90%. Besides, the “reduction in M. tuberculosis levels within THP-1 macrophages” value with M. tuberculosis [3] is given as “about 50%”.

For `CC[C@H](C)[C@H](NC(=O)CN)C(=O)NCC(=O)N[C@@H](C)C(=O)N[C@H](C(=O)N[C@@H](CC(C)C)C(=O)N[C@@H](CCCCN)C(=O)N[C@H](C(=O)N[C@@H](CC(C)C)C(=O)N[C@H](C(=O)N[C@H](C(=O)NCC(=O)N[C@@H](CC(C)C)C(=O)N1CCC[C@H]1C(=O)N[C@@H](C)C(=O)N[C@@H](CC(C)C)C(=O)N[C@H](C(=O)N[C@@H](CO)C(=O)N[C@@H](Cc1c[nH]c2ccccc12)C(=O)N[C@H](C(=O)N[C@@H](CCCCN)C(=O)N[C@@H](CCCNC(=N)N)C(=O)N[C@@H](CCCCN)C(=O)N[C@@H](CCCNC(=N)N)C(=O)N[C@@H](CCC(N)=O)C(=O)N[C@@H](CCC(N)=O)C(N)=O)[C@@H](C)CC)[C@@H](C)CC)[C@@H](C)O)[C@@H](C)O)C(C)C)C(C)C` [melittin], the “viability of C. elegans” value with C. elegans was “no live worms”.
